Measurements as given in patent US20250179481A1, “COMPOSITIONS AND METHODS FOR TARGETING, EDITING, OR MODIFYING GENES” (Celyntra Therapeutics SA, priority 2021, published 2025).

Tested on: human genes
Test: Editing efficiency of tested crRNAs / guide nucleic acids (Tables 7-10) detected in human cells
Assay type: cell-based
Conditions: for % Indel: tested crRNAs targeting human genes
[1] = target gene as given (Table 10)

| Substance | % Indel [1] | % Indel (Target Gene TIGIT) | further results |
| --- | --- | --- | --- |
| gCARD11_1: spacer targeting CARD11, SEQ ID NO 1388, TAGTACCGCTCCTGGAAGGTT (chemistry not given here) | 1.37% |  |  |
| gCD247_12: spacer targeting CD247, SEQ ID NO 89, CTAGCAGAGAAGGAAGAACCC (chemistry not given here) | 70.64% |  |  |
| gDHODH_1 (guide TTGCAGAAGCGGGCCCAGGAT; chemistry not given here) | 0.6% |  |  |
| gDHODH_2 (guide TTGCAGAAGCGGGCCCAGGAT; chemistry not given here) | 0.59% |  |  |
| gDHODH_3 (guide TATGCTGAACACCTGATGCCG; chemistry not given here) | 74.94% |  |  |
| gIL7R_3: spacer targeting IL7R, SEQ ID NO 1393, CAGGGGAGATGGATCCTATCT (chemistry not given here) | 87.87% |  |  |
| gLAG3_6: spacer targeting LAG3, SEQ ID NO 153, GGGTGCATACCTGTCTGGCTG (chemistry not given here) |  |  | % Indel (Target Gene LAG3): 52.4% |
| gLCK1_3: spacer targeting LCK, SEQ ID NO 1401, ACCCATCAACCCGTAGGGATG (chemistry not given here) | 16.21% |  |  |
| gPD_23: spacer targeting PDCD1, SEQ ID NO 210, TCTGCAGGGACAATAGGAGCC (chemistry not given here) |  |  | % Indel (Target Gene PD): 57.6% |
| gPLCG1_2: spacer targeting PLCG1, SEQ ID NO 1403, CCTTTCTGCGCTTCGTGGTGT (chemistry not given here) | 5.14% |  |  |
| gPTPN6_6: spacer targeting PTPN6, SEQ ID NO 249, TATGACCTGTATGGAGGGGAG (chemistry not given here) |  |  | % Indel (Target Gene PTPN6): 83.4% |
| gPTPN6_8 (guide AGGTGGATGATGGTGCCGTCG; chemistry not given here) |  |  | % Indel (Target Gene PTPN6): 3.5% |
| gPTPN6_9 (guide CCTGACGCTGCCTTCTCTAGG; chemistry not given here) |  |  | % Indel (Target Gene PTPN6): 0.8% |
| gTIGIT_1 (guide CCTGAGGCGAGGGGAGCCTGC; chemistry not given here) |  | 0.2% |  |
| gTIGIT_2: spacer targeting TIGIT, SEQ ID NO 302, AGGCCTTACCTGAGGCGAGGG (chemistry not given here) |  | 81.7% |  |
| gTIGIT_3 (guide GTCCTCTTCCCTAGGAATGAT; chemistry not given here) |  | 1.3% |  |
| gTIGIT_4 (guide TATTGTGCCTGTCATCATTCC; chemistry not given here) |  | 1% |  |
| gTIGIT_5 (guide TCTGCAGAAATGTTCCCCGTT; chemistry not given here) |  | 1.1% |  |
| gTIGIT_6 (guide CTCTGCAGAAATGTTCCCCGT; chemistry not given here) |  | 0.1% |  |
| gTIGIT_7 (guide TGCAGAGAAAGGTGGCTCTAT; chemistry not given here) |  | 6% |  |
| gTIGIT_8 (guide TGCCGTGGTGGAGGAGAGGTG; chemistry not given here) |  | 0.3% |  |
| gTIGIT_9 (guide TGGCCATTTGTAATGCTGACT; chemistry not given here) |  | 0.8% |  |
| gTIGIT_10 (guide TAATGCTGACTTGGGGTGGCA; chemistry not given here) |  | 1.6% |  |
| gTIGIT_11 (guide GGGTGGCACATCTCCCCATCC; chemistry not given here) |  | 9.7% |  |
| gTIGIT_12 (guide AAGGATGGGGAGATGTGCCAC; chemistry not given here) |  | 0.4% |  |

| Substance | % Indel [1] | % Indel (Target Gene TIGIT) | further results |
| --- | --- | --- | --- |
| gTIGIT_13 (guide AAGGATCGAGTGGCCCCAGGT; chemistry not given here) |  | 0.2% |  |
| gTIGIT_14 (guide TGCATCTATCACACCTACCCT; chemistry not given here) |  | 1.4% |  |
| gTIGIT_15 (guide TAGGACCTCCAGGAAGATTCT; chemistry not given here) |  | 0.4% |  |
| gTIGIT_16 (guide CTAGGACCTCCAGGAAGATTC; chemistry not given here) |  | 0.5% |  |
| gTIGIT_17 (guide CTCCAGCAGGAATACCTGAGC; chemistry not given here) |  | 0.8% |  |
| gTIGIT_18 (guide GTCCTCCCTCTAGTGGCTGAG; chemistry not given here) |  | 72.4% |  |
| gTIGIT_19 (guide GAGCCATGGCCGCGACGCTGG; chemistry not given here) |  | 0.9% |  |
| gTIGIT_20 (guide TAGTCAACGCGACCACCACGA; chemistry not given here) |  | 0.1% |  |
| gTIGIT_21 (guide CTAGTCAACGCGACCACCACG; chemistry not given here) |  | 0.1% |  |
| gTIGIT_22 (guide TAGTTTGTTTGTTTTTAGAAG; chemistry not given here) |  | 0.6% |  |
| gTIGIT_23 (guide TTTGTTTTTAGAAGAAAGCCC; chemistry not given here) |  | 1% |  |
| gTIGIT_24 (guide TTTTTAGAAGAAAGCCCTCAG; chemistry not given here) |  | 0.4% |  |
| gTIGIT_25 (guide TAGAAGAAAGCCCTCAGAATC; chemistry not given here) |  | 1.2% |  |
| gTIGIT_26 (guide CACAGAATGGATTCTGAGGGC; chemistry not given here) |  | 0.3% |  |
| gTIGIT_27 (guide CTCCTGAGGTCACCTTCCACA; chemistry not given here) |  | 1.6% |  |
| gTIGIT_28 (guide CTGGGGGTGAGGGAGCACTGG; chemistry not given here) |  | 0.5% |  |
| gTIGIT_29 (guide TGCCTGGACACAGCTTCCTGG; chemistry not given here) |  | 0.3% |  |
| gTIGIT_30 (guide TGTAACTCAGGACATTGAAGT; chemistry not given here) |  | 0.5% |  |
| gTIGIT_31 (guide AATGTCCTGAGTTACAGAAGC; chemistry not given here) |  | 0.5% |  |
| gTRAC006: spacer targeting TRAC, SEQ ID NO 988, TGAGGGTGAAGGATAGACGCT (chemistry not given here) | 81.8% |  |  |
| gTRAC084 (guide GACTTTTCCCAGCTGACAGAT; chemistry not given here) | 1.6% |  |  |
| gTRAC085 (guide TCAACCCTGAGTTAAAACACA; chemistry not given here) | 0.5% |  |  |
| gTRAC086 (guide CTCAACCCTGAGTTAAAACAC; chemistry not given here) | 0.2% |  |  |
| gTRAC087 (guide TCCTGAAGGTAGCTGTTTTCT; chemistry not given here) | 0.2% |  |  |
| gTRAC088 (guide GTCCTGAAGGTAGCTGTTTTC; chemistry not given here) | 0.1% |  |  |

| Substance | % Indel [1] | % Indel (Target Gene TIGIT) | further results |
| --- | --- | --- | --- |
| gTRAC089 (guide AACTCAGGGTTGAGAAAACAG; chemistry not given here) |  |  | % Indel (Target Gene TRAC): 0.7% |
| gTRAC090 (guide ACTCAGGGTTGAGAAAACAGC; chemistry not given here) |  |  | % Indel (Target Gene TRAC): 0.1% |
| gTRBC1 + 2_1 (guide AGCCATCAGAAGCAGAGATCT; chemistry not given here) |  |  | % Indel (TRBC1) (crRNA targeting TRBC1 + 2, value at TRBC1): 66.40%; % Indel (TRBC2) (crRNA targeting TRBC1 + 2, value at TRBC2): 74.7% |
| gTRBC2_7 (guide CCCTGTTTTCTTTCAGACTGT; chemistry not given here) | 0.09% |  |  |
| gTRBC2_8 (guide CTTTCAGACTGTGGCTTCACC; chemistry not given here) | 0.24% |  |  |
| gTRBC2_9 (guide TTTCAGACTGTGGCTTCACCT; chemistry not given here) | 0.24% |  |  |
| gTRBC2_10 (guide CAGACTGTGGCTTCACCTCCG; chemistry not given here) | 0.16% |  |  |
| gTRBC2_11 (guide AGACTGTGGCTTCACCTCCGG; chemistry not given here) | 19.97% |  |  |
| gTRBC2_12: spacer targeting TRBC2, SEQ ID NO 1379, CCGGAGGTGAAGCCACAGTCT (chemistry not given here) | 33.14% |  |  |
| gTRBC2_13 (guide TCAACAGAGTCTTACCAGCAA; chemistry not given here) | 1.2% |  |  |
| gTRBC2_14 (guide CCAGCAAGGGGTCCTGTCTGC; chemistry not given here) | 6.69% |  |  |
| gTRBC2_15 (guide CTAGGGAAGGCCACCTTGTAT; chemistry not given here) | 21.74% |  |  |
| gTRBC2_16 (guide TATGCCGTGCTGGTCAGTGCC; chemistry not given here) | 0.2% |  |  |
| gTRBC2_17 (guide CCATGGCCATCAGCACGAGGG; chemistry not given here) | 1.75% |  |  |
| gTRBC2_18 (guide CCTAGCAAGATCTCATAGAGG; chemistry not given here) | 0.37% |  |  |
| gTRBC2_19 (guide CACAGGTCAAGAGAAAGGATT; chemistry not given here) | 1.58% |  |  |
| gTRBC2_21 (guide GAGCTAGCCTCTGGAATCCTT; chemistry not given here) | 11.89% |  |  |
| gTUBB_1 (guide AACCATGAGGGAAATCGTGCA; chemistry not given here) | 2.61% |  |  |
| gTUBB_2 (guide ACCATGAGGGAAATCGTGCAC; chemistry not given here) | 68.4% |  |  |
| gTUBB_3 (guide TTCTCTGTAGGTGGCAAATAT; chemistry not given here) | 18.67% |  |  |
| gU6_1 (guide GTCCTTTCCACAAGATATATA; chemistry not given here) | 68.1% |  |  |
| gU6_2 (guide GATTTCTTGGCTTTATATATC; chemistry not given here) | 0.71% |  |  |
| gU6_3 (guide TTGGCTTTATATATCTTGTGG; chemistry not given here) | 2.83% |  |  |
| gU6_4 (guide GCTTTATATATCTTGTGGAAA; chemistry not given here) | 0.37% |  |  |
